According to patent publication US12338243B2, “P2X7 modulators” (JANSSEN PHARMACEUTICA NV, priority 2014, dated 2025):

Columns and labels:
P2X7 = molecular target: T1, P2X7 (Homo sapiens, UniProt Q99572); assay: Ca2+ flux (FLIPR) in 1321N1 cells expressing recombinant human P2X7 channel; type: cell-based; parameters: expressed in transfected cells; host or cells: 1321N1 cells; conditions: 250 μM BzATP
T1 sequence (Q99572 1-595): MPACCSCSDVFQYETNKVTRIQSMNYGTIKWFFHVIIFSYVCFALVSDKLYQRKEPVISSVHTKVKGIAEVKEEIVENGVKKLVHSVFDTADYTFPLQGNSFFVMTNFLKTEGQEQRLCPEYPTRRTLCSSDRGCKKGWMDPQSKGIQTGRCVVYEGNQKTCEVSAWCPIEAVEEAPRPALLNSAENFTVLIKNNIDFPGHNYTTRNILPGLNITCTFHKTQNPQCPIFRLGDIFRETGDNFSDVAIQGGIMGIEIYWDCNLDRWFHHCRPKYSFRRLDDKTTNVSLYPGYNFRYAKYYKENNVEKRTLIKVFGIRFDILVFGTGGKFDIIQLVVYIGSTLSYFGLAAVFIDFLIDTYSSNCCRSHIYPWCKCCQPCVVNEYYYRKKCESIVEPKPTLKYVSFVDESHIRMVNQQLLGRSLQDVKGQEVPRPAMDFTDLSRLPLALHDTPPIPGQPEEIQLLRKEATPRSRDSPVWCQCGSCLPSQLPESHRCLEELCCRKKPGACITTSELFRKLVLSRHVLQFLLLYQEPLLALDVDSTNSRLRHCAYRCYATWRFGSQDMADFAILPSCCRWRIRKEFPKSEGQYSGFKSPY
Protocol: P2X7 Antagonism in Recombinant Human P2X7 Cells or Recombinant Rat P2X7 Cells: (a) Ca^2+ Flux and (b) Radioligand Binding
(a) Ca^2+ flux: 1321N1 cells expressing the recombinant human or rat P2X7 channel was cultured in HyQ DME/(HyClone/Dulbecco's Modified Eagle Medium) high glucose supplemented with 10% Fetal Bovine Serum (FBS) and appropriate selection marker. Cells were seeded at a density of 25000 cells/well (96-well clear bottom black walled plates) in 100 μl volume/well. On the day of the experiment, cell plates were washed with assay buffer, containing (in mM): 130 NaCl, 2 KCl, 1 CaCl2), 1 MgCl2, 10 HEPES, 5 glucose; pH 7.40 and 300 mOs. After the wash, cells were loaded with the Calcium-4 dye (Molecular Device) and incubated in the dark for 60 minutes. Test compounds were prepared at 250× the test concentration in neat DMSO. Intermediate 96-well compound plates were prepared by transferring 1.2 μL of the compound into 300 μL of assay buffer. A further 3× dilution occurred when transferring 50 μL/well of the compound plate to 100 μL/well in the cell plate. Cells were incubated with test compounds and dye for 30 minutes. […] The fluorescence change was measured 180 seconds after adding the agonist.

rat P2X7 = molecular target: T2, rat P2X7 (Rattus norvegicus, UniProt Q64663); assay: Ca2+ flux (FLIPR) in 1321N1 cells expressing recombinant rat P2X7 channel; conditions: FLIPR (rat) IC50 (μM), 250 μM BzATP
T2 sequence (Q64663 1-595): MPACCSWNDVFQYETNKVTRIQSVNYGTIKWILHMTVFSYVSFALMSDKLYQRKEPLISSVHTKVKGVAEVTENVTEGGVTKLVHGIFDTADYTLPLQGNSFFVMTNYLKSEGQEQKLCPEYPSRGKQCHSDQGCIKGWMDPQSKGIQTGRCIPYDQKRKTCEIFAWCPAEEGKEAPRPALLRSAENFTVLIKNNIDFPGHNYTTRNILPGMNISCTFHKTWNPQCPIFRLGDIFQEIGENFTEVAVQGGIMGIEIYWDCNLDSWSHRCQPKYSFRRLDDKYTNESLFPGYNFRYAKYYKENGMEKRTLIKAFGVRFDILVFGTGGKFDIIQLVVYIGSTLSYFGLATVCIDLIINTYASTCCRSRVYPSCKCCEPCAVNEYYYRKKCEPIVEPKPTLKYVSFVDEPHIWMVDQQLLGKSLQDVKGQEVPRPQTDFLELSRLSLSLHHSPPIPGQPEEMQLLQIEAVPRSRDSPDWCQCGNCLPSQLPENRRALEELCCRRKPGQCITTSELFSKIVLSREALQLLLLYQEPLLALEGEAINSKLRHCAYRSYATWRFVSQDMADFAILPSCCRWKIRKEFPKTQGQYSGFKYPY

SMILES | IC50 (P2X7) | IC50 (rat P2X7)
O=C(c1cccc(C(F)(F)F)c1Cl)N1CCn2c(C3CCC3)nnc2[C@@H]1c1ccccc1 [Example 94, (S)-(2-chloro-3-(trifluoromethyl)phenyl)(3-cyclobutyl-8-phenyl-5,6-dihydro-[1,2,4]triazolo[4,3-a]pyrazin-7(8H)-yl)methanone] | 0.433 µM | 2.16 µM
COc1ccc(-c2nnc3n2C[C@H](C)N(C(=O)c2cccc(C(F)(F)F)c2Cl)C3)nc1 [Example 71] | 1.22 µM | > 10 µM
C[C@H]1Cn2c(nnc2-c2ccc(C(F)(F)F)cc2)CN1C(=O)c1cccc(Cl)c1Cl [Example 26, (S)-(2,3-dichlorophenyl)(6-methyl-3-(4-(trifluoromethyl)phenyl)-5,6-dihydro-[1,2,4]triazolo[4,3-a]pyrazin-7(8H)-yl)methanone] | 4.13 µM | 3.95 µM
C[C@H]1Cn2c(nnc2-c2ccc(F)c(F)c2)CN1C(=O)c1cccc(C(F)(F)F)c1Cl [Example 48, (S)-(2-chloro-3-(trifluoromethyl)phenyl)(3-(3,4-difluorophenyl)-6-methyl-5,6-dihydro-[1,2,4]triazolo[4,3-a]pyrazin-7(8H)-yl)methanone] | 1.66 µM | 0.637 µM
C[C@H]1Cn2c(nnc2-c2ccc(C(F)(F)F)c(F)c2)CN1C(=O)c1cccc(Cl)c1Cl [Example 28, (S)-(2,3-dichlorophenyl)(3-(3-fluoro-4-(trifluoromethyl)phenyl)-6-methyl-5,6-dihydro-[1,2,4]triazolo[4,3-a]pyrazin-7(8H)-yl)methanone] | 7.48 µM | 3.78 µM
C[C@H]1Cn2c(nnc2-c2ccc(C(F)(F)F)cc2)CN1C(=O)c1cccc(C(F)(F)F)c1Cl [Example 27, (S)-(2-chloro-3-(trifluoromethyl)phenyl)(6-methyl-3-(4-(trifluoromethyl)phenyl)-5,6-dihydro-[1,2,4]triazolo[4,3-a]pyrazin-7(8H)-yl)methanone] | 1.66 µM | 2.96 µM
Cc1nnc2n1CCN(C(=O)c1cccc(C(F)(F)F)c1Cl)[C@@H]2c1ccc(F)cc1 [Example 114, (R)-(2-chloro-3-(trifluoromethyl)phenyl)(8-(4-fluorophenyl)-3-methyl-5,6-dihydro-[1,2,4]triazolo[4,3-a]pyrazin-7(8H)-yl)methanone] | 4.08 µM | > 10 µM
O=C(c1cccc(Cl)c1Cl)N1CCn2c(nnc2C(F)(F)F)[C@@H]1c1ccccc1 [Example 103, (S)-(2,3-dichlorophenyl)(8-phenyl-3-(trifluoromethyl)-5,6-dihydro-[1,2,4]triazolo[4,3-a]pyrazin-7(8H)-yl)methanone] | 1.4 µM | > 10 µM
COc1cnc(-c2nnc3n2C[C@H](C)N(C(=O)c2cccc(C(F)(F)F)c2Cl)C3)nc1 [Example 78, (S)-(2-chloro-3-(trifluoromethyl)phenyl)(3-(5-methoxypyrimidin-2-yl)-6-methyl-5,6-dihydro-[1,2,4]triazolo[4,3-a]pyrazin-7(8H)-yl)methanone] | 0.0143 µM | 6.61 µM
O=C(c1cccc(C(F)(F)F)c1Cl)N1CCn2c(nnc2C(F)(F)F)[C@@H]1c1ccccc1 [Example 98, (S)-(2-chloro-3-(trifluoromethyl)phenyl)(8-phenyl-3-(trifluoromethyl)-5,6-dihydro-[1,2,4]triazolo[4,3-a]pyrazin-7(8H)-yl)methanone] | 5.51 µM | > 10 µM
Cc1nnc2n1CCN(C(=O)c1cccc(Cl)c1Cl)[C@@H]2c1ccc(F)cc1 [Example 104, (R)-(2,3-dichlorophenyl)(8-(4-fluorophenyl)-3-methyl-5,6-dihydro-[1,2,4]triazolo[4,3-a]pyrazin-7(8H)-yl)methanone] | 4.48 µM | > 10 µM
O=C(c1cccc(C(F)(F)F)c1Cl)N1CCn2c(C3CC3)nnc2[C@H]1c1ccc(F)cc1 [Example 106, (R)-(2-chloro-3-(trifluoromethyl)phenyl)(3-cyclopropyl-8-(4-fluorophenyl)-5,6-dihydro-[1,2,4]triazolo[4,3-a]pyrazin-7(8H)-yl)methanone] | > 10 µM | > 10 µM
